{"source": "patent US6013665A", "about": "“Method for enhancing the absorption and transport of lipid soluble compounds using structured glycerides” (Abbott Laboratories, priority 1997, dated 2000)", "key": {"[1]": {"conditions": "cited from earlier work"}, "[2]": {"conditions": "rat, in vivo", "description": "(§1) The results set forth in FIGS. 1-4 are statistically significant at p<0.01 (see *). A two way analysis of variance model was employed for each treatment, lipid type and their interaction effects in the model were used to compare the area under each curve. Models were extended to included contrast statements comparing the physical mix and the structured triglyceride within each treatment group.\n(§2) This experiment was conducted to determine if a structured glyceride consisting of a co-randomized MCT/fish oil would enhance the absorption of lipophilic compounds such as vitamin E (tocopherol) and retinol (vitamin A) using a lymph fistula rat model based upon a procedure described by Fujimoto et al., \"Effect of Ischemia-Reperfusion on Lipid Digestion and Absorption in Rat Intestine\", Am. J. Physiol., 260: G595-G602 (1991), the entire teaching of which is hereby incorporated by reference. This model was designed to represent fat absorption mode of the healthy intestinal tract (i.e., not compromised through disease or ischemic event). The lymph fistula rat model is extremely accurate in measuring and quantitating lipid absorption.\n(§3) The physical mix (Part A)and structured triglyceride component (Part B) of Example 1 were used. […].\n(§4) Male Sprague Dawley rats weighing between 280 and 330 grams were all fed a normal Purina Rat Chow for one week. Rats were fasted overnight prior to surgery and under anesthesia, a laparotomy was performed, the intestinal lymph duct was cannulated according to the procedure of Tso et al., \"The Absorption of Lipid and Lipoprotein Synthesis\", Lipid Research Methodology, Chapter 5: 191-216 (1984) Alan R. Liss, Inc., N.Y., N.Y, the entire teaching of which is hereby incorportated by reference. […] A silicon infusion tube (1.6 mm OD) was placed in the stomach for infusion of saline, structured lipid/lipophilic compound or emulsified physical mix/lipophilic compound. The fundic incision was closed by a purse string suture. The animals were allowed to recover for 24 hours before experimental oil/lipophilic compound infusion began.\n(§5) Animals were randomly assigned to two groups in this non-injury model. […].\n(§6) Lymph was collected in pre-cooled tubes beginning hourly for eight (8) hours after initiation of lipid infusion. At the end of the lipid infusion, the animals were sacrificed by exsanguination.\n(§7) Radioactivity was measured in an aqueous miscible scintillant (Poly-Fluor, Packard, Downers Grove, Ill.). Samples were counted for 10 minutes in a liquid scintillation spectrophotometer (LKB Model 1209, Pharmacia, Inc.). Samples were corrected for quenching by reference to a series of ^14 C and ^3 H standards that were progressively quenched.\nThis experiment was conducted in a manner similar to Example 2 except that the ischemic/reperfusion injury model was used. This model was used to simulate the lipid malabsorption conditions associated with diseases such as Short Bowel Syndrome, Crohn's disease and the like. Animals were divided into two groups and given the physical mix (Group A) or the structured triglyceride component (Group B) of Example 2."}, "[3]": {"parameters": "species or system Male Sprague Dawley rats", "conditions": "rat, in vivo", "description": "as §1, §2, §3, §4, §5, §6, §7\nLymph lipids were extracted and the methyl ester derivatives of the fatty acids were analyzed using a Hewlett Packard Gas Chromatograph, Model 5890A with a capillary column packed with 10% SP-2330 on 80/100 Supelcoport (Supelco, Inc., Bellefonte, Pa.)."}, "[4]": {"conditions": "cited from earlier work", "remark": "listed apart in the source"}, "[5]": {"conditions": "in vivo; cited from earlier work"}, "[6]": {"conditions": "rat, in vivo; cited from earlier work"}, "[7]": {"conditions": "in vivo; cited from earlier work", "remark": "listed apart in the source"}}, "note": "Read-outs that look alike come from different tables or passages of the source.", "data": [{"molecule": "CCCCCCCC/C=C\\CCCCCCCC(=O)O", "note": "[oleic acid]", "values": [{"measurement": "absorption into the lymphatic system from an emulsion", "setting": "[1]; rats with bile diversion, emulsion", "value": "well absorbed into the lymphatic system"}]}, {"molecule": "CC1=C(/C=C/C(C)=C/C=C/C(C)=C/CO)C(C)(C)CCC1", "note": "[retinol]", "values": [{"measurement": "amount of retinol to the lymphatic circulation, structured triglyceride component vs physical mixture, end of study (FIG. 3)", "setting": "[2]", "value": "more than twice the amount"}, {"measurement": "lymphatic retinol absorption, structured triglyceride component vs physical mixture, initial 3 hour period (FIG. 3)", "setting": "[2]", "value": "about equal"}, {"measurement": "retinol absorption, structured triglyceride component over physical mix, after about 3 hours (FIG. 3)", "setting": "[2]", "value": "enhancement in the retinol absorption over the physical mix"}, {"measurement": "lymph tocopherol and retinol output with structured glyceride component versus physical mix", "setting": "[3]", "value": "increased rapidly and maintained a significantly higher output"}, {"measurement": "lymphatic retinol absorption, structured triglyceride component vs physical mix (FIG. 1)", "setting": "[3]", "value": "increased the lymphatic absorption of retinol over the entire 8 hour study period"}]}, {"molecule": "CCCCCCCC/C=C\\CCCCCCCC(=O)OCC(COC(=O)CCCCCCC/C=C\\CCCCCCCC)OC(=O)CCCCCCC/C=C\\CCCCCCCC", "note": "[triolein]", "values": [{"measurement": "amount of lipid transported to the lymph", "setting": "[4]; lymph fistula rat, same amount of fatty acid infused as triolein or phosphatidylcholine with vitamin E", "value": "similar"}]}, {"molecule": "phosphatidylcholine", "values": [{"measurement": "amount of lipid transported to the lymph", "setting": "[4]; rat, in vivo", "value": "similar"}]}, {"molecule": "α-tocopherol", "values": [{"measurement": "intestinal absorption of vitamin E with MCT", "setting": "[5]", "value": "enhancing effect of MCT on intestinal absorption of vitamin E"}, {"measurement": "absorption into the lymphatic system from an emulsion", "setting": "[1]; rat, in vivo", "value": "poorly absorbed from the emulsion"}, {"measurement": "gastrointestinal absorption of lecithin-dispersed aqueous preparations of vitamin E with MCT", "setting": "[6]", "value": "significantly enhanced the absorption"}, {"measurement": "lymphatic absorption of vitamin E from lecithin-dispersed aqueous preparations", "setting": "[6]", "value": "increase the lymphatic absorption of vitamin E"}, {"measurement": "higher lymph output of the lipophilic compound with structured triglyceride component compared to the corresponding physical mix", "setting": "[2]", "value": "≥ 30", "unit": "%"}, {"measurement": "lymphatic tocopherol absorption, structured triglyceride vs physical mix, after about 2 hours (FIG. 4)", "setting": "[2]", "value": "significantly enhanced level of lymphatic tocopherol absorption"}, {"measurement": "tocopherol absorption, structured triglyceride component vs physical mix, initial 2 hour period (FIG. 4)", "setting": "[2]", "value": "essentially equal"}, {"measurement": "transport of vitamin E into lymph, phosphatidylcholine vs triglyceride infusion", "setting": "[4]; rat, in vivo", "value": "significantly reduced"}, {"measurement": "higher lymph output of the lipophilic compound with structured triglyceride compared to the corresponding physical mix", "setting": "[3]", "value": "≥ 30", "unit": "%"}, {"measurement": "lymph tocopherol and retinol output with structured glyceride component versus physical mix", "setting": "[3]", "value": "increased rapidly and maintained a significantly higher output"}, {"measurement": "lymphatic tocopherol absorption, structured glyceride component vs physical mix (FIG. 2)", "setting": "[3]", "value": "enhances the lymphatic absorption of tocopherol over the entire 8 hour study period"}, {"measurement": "α-tocopherol absorption by rat small intestine with polyunsaturated fatty acids in bile salt micelles", "setting": "[7]", "value": "depress α-tocopherol absorption"}]}]}
